Entries after “also recorded” stand apart in the source; their conditions may differ.
Legend:
monocytes = conditions: Yokochi (2001); Yamada (2004); cited from earlier work
MCP-1 = MCP-1 (Homo sapiens, UniProt P13500); conditions: Yokochi (2001); Yamada (2004); cited from earlier work
[1] = In Use stability study: repagermanium IR capsules reconstituted in water in a medical pot, with or without nasogastric tube (assay, appearance, pH); format: physicochemical; conditions: reconstituted in 15 ml water in a medical pot, up to 3 h (180 minutes)
Protocol: An In Use stability study was performed to determine the reconstitution and dosage information for administration of repagermanium IR capsules via nasogastric feeding tube. The objective of the study was to: • 1. measure the stability of the repagermanium drug product composition once reconstituted in water for administration via a gastric tube, • 2. determine if there is any residual repagermanium remaining in the medicine pot after the first 15 mL solution has been removed, and • 3. identify if additional flushing of the nasogastric tube will be required to deliver the correct dose of repagermanium. There were 6 experiments in total. Each experiment was performed in duplicate (except for micro tests). [table]

Sequence of MCP-1 (P13500 24-99, species assumed): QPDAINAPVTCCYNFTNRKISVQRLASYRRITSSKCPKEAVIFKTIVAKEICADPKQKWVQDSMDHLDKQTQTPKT

SMILES	inhibition of in vitro chemotactic migration of monocytes by MCP-1 (monocytes)	inhibition of MCP-1 binding (MCP-1)	chemical and microbiological stability after reconstitution [1]
O=C(O)C[CH2][Ge](=[O])[O][Ge](=[O])[CH2]CC(=O)O [Propagermanium, 3-[(2-carboxyethyl-oxogermyl)oxy-oxogermyl] propanoic acid]	specifically inhibit in vitro chemotactic migration of monocytes by MCP-1; also recorded: inhibits in-vitro chemotactic migration of monocytes by MCP-1	does not inhibit MCP-1 binding	–
O=C(O)C[CH2][Ge](=[O])[O][Ge](=[O])[CH2]CC(=O)O [repagermanium, 3-[(2-carboxyethyl-oxogermyl)oxy-oxogermyl] propanoic acid]	–	–	chemically and microbiologically stable
